# Assay results from patent publication US20090311237A1, “Combination therapy using a soluble hyaluronidase and a bisphosphonate” (priority 2008, published 2009).
# Like-named read-outs stand apart in the source and are kept apart here.
# Assay: Pharmacokinetics of ZA in pig serum after IV or SC infusion with or without rHuPH20 (LC-MS-MS, non-compartmental analysis)
# Type: in vivo
# Details: female, Yorkshire, pig, serum, […], pig; for bioavailability / Tmax / half-life / Vd/F: sc, SC ZA […], no rHuPH20 (Study Group 2), n=4; for concentration at 0.05 h / concentration at 5 min / concentration at 0.333 h / concentration at 0.5 h / concentration at 1 h: subcutaneous, Study Group 2, SC, ZA […], rHuPH20 0 U/mL, read-out: Zoledronic Acid Serum Concentration
# Description: A pharmacokinetic study of zoledronic acid (ZA) co-administered with rHuPH20 in female Yorkshire swines was conducted. The primary objective of the study was to determine the bioavailability of zoledronic acid dosed via subcutaneous (SC) co-administration with human recombinant hyaluronidase PH20 (rHuPH20) and to compare the overall exposure to an equivalent IV dose.
# Animals in Study Group 1 were dosed with 0.15 mg/kg ZA given via a 20-minute IV infusion. Animals in Study Groups 2 and 3 were dosed subcutaneously (SC) with 0.15 mg/kg ZA without and with rHuPH20, respectively, in different SC delivery volumes.
# Following ZA dose administration, serial blood samples were collected via vascular access ports (VAPs) for serum preparation and determination of ZA concentrations. Blood collection times were at 1, 3, 5, 10, 15, 20, 30, 45, and 60 minutes, and at 1.5, 2, 3, 4, 6, 8, 10, 24, 48, and 72 hours post dose. Urine samples were also collected to compare excretion characteristics between IV and SC routes of administration. Collection times for urine were at 15 minutes before dosing (−15 min.), continuously from dose initiation to 2 hours post dose, and at 4, 6, 8, and 24 hours post dose thereafter.
# Serum concentration of ZA was determined using a qualified LC-MS-MS assay after derivatization with diazomethane (Zhu, L S et al. (2006) Rapid Commun. Mass Spectrom. 20: 3421-3426; “Qualification Data of An LC-MS/MS Method for the Determination of Zoledronate in Porcine Serum”, MDS Pharma Services Study No. AA43671-01, Report Date 14 Sep. 2007). The assay range was from 2.0 to 400 ng/mL with a lower limit of quantitation (LLOQ) at 2.0 ng/mL. Urine concentration of ZA was determined by a similar well qualified LC-MS-MS method (“Qualification Data of An LC-MS/MS Method for the Determination of Zoledronate in Porcine Urine”, MDS Pharma Services Study No. AA43671-02, Report Date 14 Sep. 2007) with an assay LLOQ at 10 ng/mL.
# Pharmacokinetic (PK) analyses of ZA serum concentration versus time data were conducted using WinNonlin v5.1 (Pharsight, Mountain View, Calif.). Non-compartmental analysis was used for derivation of primary and secondary pharmacokinetic (PK) parameters. AUC, Cmax, and Tmax were compared between dose routes, between co-administration with rHuPH20, and with dose of rHuPH20.
structure (smiles),measurement,setting,value
"O=P(O)(O)C(O)(Cn1ccnc1)P(=O)(O)O [ZA, 1-hydroxy-2-(1H-imidazol-1-yl)ethylidene-1,1-bisphosphonic acid]",bioavailability,"read-out: SC Bioavailability (0-8 h), mean",87.7 ± 15%
same,bioavailability,"read-out: SC Bioavailability (0-8 h), median",86.9%
same,Tmax,"read-out: Tmax, mean",12.6 min
same,Tmax,"read-out: Tmax, median",10.2 min
same,half-life,"read-out: T½ λz, mean (converted)",64.2 ± 14.4 min
same,half-life,"read-out: T½ λz, median (converted)",59.4 min
same,Vd/F,"read-out: Vss/F, mean",0.607 L/kg
same,Vd/F,"read-out: Vss/F, median",0.625 L/kg
same,Vd/F,"read-out: Vz/F, mean",0.784 L/kg
same,Vd/F,"read-out: Vz/F, median",0.832 L/kg
same,concentration at 0.05 h,"pig ID 59, 100 mL, 16 min",13.9 ng/mL
same,concentration at 0.05 h,"pig ID 60, 100 mL, 16 min",51.5 ng/mL
same,concentration at 0.05 h,"pig ID 62, 50 mL, 8 min",97.6 ng/mL
same,concentration at 0.05 h,"pig ID 69, 25 mL, 4 min",144 ng/mL
same,concentration at 0.05 h,"pig ID 70, 10 mL, 1.6 min",174 ng/mL
same,concentration at 5 min,"pig ID 59, 100 mL, 16 min",32.4 ng/mL
same,concentration at 5 min,"pig ID 60, 100 mL, 16 min",85 ng/mL
same,concentration at 0.333 h,"pig ID 59, 100 mL, 16 min",130 ng/mL
same,concentration at 0.333 h,"pig ID 60, 100 mL, 16 min",255 ng/mL
same,concentration at 0.333 h,"pig ID 62, 50 mL, 8 min",208 ng/mL
same,concentration at 0.333 h,"pig ID 69, 25 mL, 4 min",210 ng/mL
same,concentration at 0.333 h,"pig ID 70, 10 mL, 1.6 min",233 ng/mL
same,concentration at 0.5 h,"pig ID 59, 100 mL, 16 min",120 ng/mL
same,concentration at 0.5 h,"pig ID 60, 100 mL, 16 min",211 ng/mL
same,concentration at 0.5 h,"pig ID 62, 50 mL, 8 min",149 ng/mL
same,concentration at 0.5 h,"pig ID 69, 25 mL, 4 min",115 ng/mL
same,concentration at 0.5 h,"pig ID 70, 10 mL, 1.6 min",191 ng/mL
same,concentration at 1 h,"pig ID 59, 100 mL, 16 min",44.6 ng/mL
same,concentration at 1 h,"pig ID 60, 100 mL, 16 min",149 ng/mL
same,concentration at 1 h,"pig ID 62, 50 mL, 8 min",81.6 ng/mL
same,concentration at 1 h,"pig ID 69, 25 mL, 4 min",74.6 ng/mL
